Source: ChEMBL document CHEMBL3826902, “Synthesis and cytotoxic activities of semisynthetic zearalenone analogues” (Bioorg Med Chem Lett, 2016)
The source made the active and inactive calls. The rule behind the calls is not given here.

Tests used:
Vero [1] = test: Cytotoxicity against African green monkey Vero cells assessed as reduction in cell viability by green fluorescent protein-based assay; set-up: species or system Chlorocebus sabaeus
MCF7 [2] = test: Cytotoxicity against human MCF7 cells assessed as reduction in cell viability at >50 ug/ml by resazurin microplate assay; format: functional, cell-based
KB [3] = test: Cytotoxicity against human KB cells assessed as reduction in cell viability by resazurin microplate assay; format: functional, cell-based
KB [4] = test: Cytotoxicity against human KB cells assessed as reduction in cell viability at >50 ug/ml by resazurin microplate assay; format: functional, cell-based
Vero [5] = test: Cytotoxicity against African green monkey Vero cells assessed as reduction in cell viability at >50 ug/ml by green fluorescent protein-based assay; settings: Chlorocebus sabaeus
MCF7 [6] = test: Cytotoxicity against human MCF7 cells assessed as reduction in cell viability by resazurin microplate assay; format: functional, cell-based
[7] = Cytotoxicity against human HL60 cells assessed as reduction in cell viability after 24 hrs by MTT assay; format: functional, cell-based; settings: HL-60, 24 h
[8] = Chlorocebus sabaeus, Vero, read-out: IC50
[9] = Homo sapiens, KB, read-out: IC50
[10] = Homo sapiens, MCF7, read-out: IC50

| SMILES | IC50 (Vero [1]; vero) | Activity (MCF7 [2]) | IC50 (KB [3]; kb) | Activity (KB [4]) | Activity (Vero [5]) | IC50 (MCF7 [6]; mcf7) | IC50 (Vero [1]; [8]) | IC50 (KB [3]; [9]) | IC50 (MCF7 [6]; [10]) | IC50 [7] |
| --- | --- | --- | --- | --- | --- | --- | --- | --- | --- | --- |
| COc1cc2c(c(OC)c1)C(=O)O[C@@H](C)CCCC(=O)CCCCC2 | Not Active | inactive | Not Active | inactive | Non-toxic | Not Active |  |  |  |  |
| COc1cc(O)c2c(c1)CCCCC[C@@H](O)CCC[C@H](C)OC2=O | Not Active | inactive | Not Active | inactive | Non-toxic | Not Active |  |  |  |  |
| CCCOc1cc(O)c2c(c1)/C=C/CCC[C@H](O)CCC[C@H](C)OC2=O |  |  |  |  |  |  | 53.3 µM | 83.4 µM | 81.9 µM |  |
| C[C@H]1CCCC(=O)CCCCCc2cc(O)cc(O)c2C(=O)O1 [ZEARALANONE] |  | inactive | Not Active | inactive |  | Not Active | 151 µM |  |  |  |
| COc1cc(O)c2c(c1)/C=C/CCC[C@@H](O)CCC[C@H](C)OC2=O |  |  |  |  |  |  | 53.1 µM | 104 µM | 93.3 µM |  |
| COc1cc(O)c2c(c1Cl)/C=C/CCCC(=O)CCC[C@H](C)OC2=O |  | inactive |  |  |  | Not Active | 51.4 µM | 108 µM |  |  |
| C[C@H]1CCC[C@@H](O)CCCCCc2cc(O)cc(O)c2C(=O)O1 [TALERANOL] |  | inactive | Not Active | inactive |  | Not Active | 22.6 µM |  |  |  |
| C[C@H]1CCC[C@H](O)CCC/C=C/c2cc(O)cc(O)c2C(=O)O1 |  | inactive |  |  |  | Not Active | 60.3 µM | 100 µM |  |  |
| COc1cc(O)c2c(c1)CCCCC[C@H](O)CCC[C@H](C)OC2=O |  | inactive | Not Active | inactive |  | Not Active | 148 µM |  |  |  |
| CCCOc1cc(O)c2c(c1)/C=C/CCC[C@@H](O)CCC[C@H](C)OC2=O |  |  |  |  |  |  | 26.2 µM | 35.7 µM | 43.8 µM |  |
| CCC(=O)Oc1cc2c(c(OC(=O)CC)c1)C(=O)O[C@@H](C)CCCC(=O)CCC/C=C/2 | Not Active | inactive | Not Active | inactive | Non-toxic | Not Active |  |  |  |  |
| CC(=O)Oc1cc(O)c2c(c1)/C=C/CCC[C@@H](O)CCC[C@H](C)OC2=O |  |  |  |  |  |  | 136 µM | 51.6 µM | 89 µM |  |
| CCCCCCCCOc1cc(O)c2c(c1)/C=C/CCC[C@@H](O)CCC[C@H](C)OC2=O |  |  |  |  |  |  | 24.2 µM | 40.9 µM | 75.2 µM |  |
| COc1cc2c(c(OC)c1)C(=O)O[C@@H](C)CCC[C@H](O)CCC/C=C/2 | Not Active | inactive | Not Active | inactive | Non-toxic | Not Active |  |  |  |  |
| COc1cc2c(c(OC)c1)C(=O)O[C@@H](C)CCCC(=O)CCC/C=C/2 | Not Active | inactive | Not Active | inactive | Non-toxic | Not Active |  |  |  |  |
| CC/C(=C(\c1ccccc1)c1ccc(OCCN(C)C)cc1)c1ccccc1 [TAMOXIFEN] |  |  |  |  |  |  |  |  | 19.3 µM |  |
| COc1cc(O)c2c(c1)/C=C/CCC[C@H](O)CCC[C@H](C)OC2=O | Not Active | inactive |  |  | Non-toxic | Not Active |  | 56 µM |  |  |
| COc1cc2c(c(OC)c1)C(=O)O[C@@H](C)CCC[C@@H](O)CCCCC2 | Not Active | inactive | Not Active | inactive | Non-toxic | Not Active |  |  |  |  |
| CC(=O)Oc1cc2c(c(OC(C)=O)c1)C(=O)O[C@@H](C)CCCC(=O)CCC/C=C/2 |  | inactive |  |  |  | Not Active | 48 µM | 59.7 µM |  |  |

| SMILES | IC50 (Vero [1]; vero) | Activity (MCF7 [2]) | IC50 (KB [3]; kb) | Activity (KB [4]) | Activity (Vero [5]) | IC50 (MCF7 [6]; mcf7) | IC50 (Vero [1]; [8]) | IC50 (KB [3]; [9]) | IC50 (MCF7 [6]; [10]) | IC50 [7] |
| --- | --- | --- | --- | --- | --- | --- | --- | --- | --- | --- |
| C[C@H]1CCC[C@H](O)CCCCCc2cc(O)cc(O)c2C(=O)O1 [ZERANOL] |  | inactive | Not Active | inactive |  | Not Active | 50 µM |  |  |  |
| Cc1c2ccncc2c(C)c2c1[nH]c1ccccc12 [ELLIPTECINE] |  |  |  |  |  |  | 4.26 µM | 8.28 µM |  |  |
| CCOc1cc(O)c2c(c1)/C=C/CCC[C@@H](O)CCC[C@H](C)OC2=O | Not Active |  |  |  | Non-toxic |  |  | 66.9 µM | 61.8 µM |  |
| CCCCCCCCOc1cc(O)c2c(c1)/C=C/CCC[C@H](O)CCC[C@H](C)OC2=O |  |  |  |  |  |  | 73.4 µM | 82.2 µM | 93.6 µM |  |
| COc1cccc2c1C(=O)c1c(O)c3c(c(O)c1C2=O)C[C@@](O)(C(=O)CO)C[C@@H]3O[C@H]1C[C@H](N)[C@H](O)[C@H](C)O1 [DOXORUBICIN] |  |  |  |  |  |  |  | 1.06 µM |  |  |
| COc1cc(OC)c2c(c1Cl)/C=C/CCCC(=O)CCC[C@H](C)OC2=O | Not Active | inactive | Not Active | inactive | Non-toxic | Not Active |  |  |  |  |
| CCC(=O)Oc1cc(O)c2c(c1)/C=C/CCC[C@H](O)CCC[C@H](C)OC2=O |  | inactive |  |  |  | Not Active | 35 µM | 33.4 µM |  |  |
| CCC(=O)Oc1cc(O)c2c(c1)/C=C/CCCC(=O)CCC[C@H](C)OC2=O |  | inactive |  |  |  | Not Active | 44.1 µM | 52.4 µM |  |  |
| C[C@H]1CCC[C@@H](O)CCC/C=C/c2cc(O)cc(O)c2C(=O)O1 |  | inactive | Not Active | inactive |  | Not Active | 25.4 µM |  |  |  |
| C[C@H]1CCCC(=O)CCC/C=C/c2cc(O)cc(O)c2C(=O)O1 [ZEARALENONE] |  |  |  |  |  |  | 40.6 µM | 46.3 µM | 105 µM | 138 µM |
| CCOc1cc(O)c2c(c1)/C=C/CCC[C@H](O)CCC[C@H](C)OC2=O |  |  |  |  |  |  | 45.3 µM | 60.1 µM | 70.2 µM |  |
| CC(=O)Oc1cc(O)c2c(c1)/C=C/CCCC(=O)CCC[C@H](C)OC2=O |  | inactive |  |  |  | Not Active | 134 µM | 52.9 µM |  |  |
| COc1cc2c(c(OC)c1)C(=O)O[C@@H](C)CCC[C@H](O)CCCCC2 | Not Active | inactive | Not Active | inactive | Non-toxic | Not Active |  |  |  |  |
| COc1cc(O)c2c(c1)CCCCCC(=O)CCC[C@H](C)OC2=O | Not Active | inactive | Not Active | inactive | Non-toxic | Not Active |  |  |  |  |
| COc1cc(O)c2c(c1)/C=C/CCCC(=O)CCC[C@H](C)OC2=O | Not Active | inactive | Not Active | inactive | Non-toxic | Not Active |  |  |  |  |
| C[C@H]1CCCC(=O)CCC/C=C/c2c(Cl)c(O)cc(O)c2C(=O)O1 |  | inactive |  |  |  | Not Active | 140 µM | 89.9 µM |  |  |
| CCC(=O)Oc1cc(O)c2c(c1)/C=C/CCC[C@@H](O)CCC[C@H](C)OC2=O |  | inactive |  |  |  | Not Active | 129 µM | 85.7 µM |  |  |
| COc1cc2c(c(OC)c1)C(=O)O[C@@H](C)CCC[C@@H](O)CCC/C=C/2 | Not Active | inactive | Not Active | inactive | Non-toxic | Not Active |  |  |  |  |
| CC(=O)Oc1cc(O)c2c(c1)/C=C/CCC[C@H](O)CCC[C@H](C)OC2=O |  | inactive |  |  |  | Not Active | 13.6 µM | 48.9 µM |  |  |
